Laboratory results from patent US6660835B1, “Lead substances and their use as therapeutics” (priority 1998, dated 2003).
Ends that are not written are not given here.

Tests used:
[1] = tested on: S. epidermidis agr P3 promoter; settings: peptide 200 nM; for Specific CAT activity: S. epidermidis, without peptide 12.5
[2] = tested on: S. aureus Newman; test: Exoprotein and surface-associated protein production, Tricine SDS-PAGE; settings: 1 μM, 16 h culture
Description: FIG. 6: Influence of the S. epidermidis pheromone and its derivatives on the production of exoproteins and surface-associated proteins in S. aureus Newman. (A) Exoproteins: basic medium was inoculated with 1/100 vol. of a preculture of S. aureus Newman. At the same time, the pheromone or one of its derivatives was added at a concentration of 1 μM. The peptides were dissolved in DMSO (dimethylsulfoxide); a control received only DMSO. Culture filtrates (20 μl) of the cultures harvested after 16 h of growth were applied to Tricine SDS-PAGE and stained with Coomassie Blue. (B) Surface-associated proteins: pellets of the centrifuged 16 h cultures were dissolved in SDS-PAGE loading buffer containing 1% SDS, boiled at 1000C for 5 min, and applied to Tricine SDS-PAGE after removal of insoluble material by centrifugation. […] (SEQ ID NO: 17); (6) control (with DMSO); (7) molecular weight standards.
The effect of the synthetic cyclic peptides on the production pattern of surface-associated proteins and exoproteins was investigated (for Exoprotein analysis of S. epidermidis see Experimental procedures).
The synthetic cyclic peptides were added at a concentration of 1 μM to a culture that was inoculated by 1/100 vol. of a preculture; the cultures were incubated for 16 h. […]

## SVCASYF (not fully specified (bridges); also: thioester linkage to Cys3; listed as Staphylococcus epidermidis)
[1]
  Specific CAT activity: 8.9 U/mg protein

## SVc[CASYF]: S. epidermidis pheromone lacking the original aspartate residue at the N-terminus (SVXASYF; thiolactone cyclisation; VARIANT (3) C-terminal cyclyzed through thioester linkage to cystine residue 3; listed as Staphylococcus epidermidis)
[1]
  effect on CAT activity: very small stimulatory effect
  Specific CAT activity: 16.1 U/mg protein
[2]; cell pellets
  surface-associated proteins synthesized: synthesized in higher amounts
[2]; culture filtrate
  reduction of exoprotein production: most pronounced
